Experimental data from ChEMBL document CHEMBL6127118, “Identification of Oral Bioavailable Coumarin Derivatives as Potential AR Antagonists Targeting Prostate Cancer” (J Med Chem, 2024).

Tests used:
[1] = biological target: T1, Androgen receptor (Homo sapiens, UniProt P10275); test: Antagonist activity at DHT-induced Androgen receptor in human LNCaP cells transfected with ARR2PB-eGFP incubated for 3 days; assay type: cell-based
T1 sequence (P10275 whole entry): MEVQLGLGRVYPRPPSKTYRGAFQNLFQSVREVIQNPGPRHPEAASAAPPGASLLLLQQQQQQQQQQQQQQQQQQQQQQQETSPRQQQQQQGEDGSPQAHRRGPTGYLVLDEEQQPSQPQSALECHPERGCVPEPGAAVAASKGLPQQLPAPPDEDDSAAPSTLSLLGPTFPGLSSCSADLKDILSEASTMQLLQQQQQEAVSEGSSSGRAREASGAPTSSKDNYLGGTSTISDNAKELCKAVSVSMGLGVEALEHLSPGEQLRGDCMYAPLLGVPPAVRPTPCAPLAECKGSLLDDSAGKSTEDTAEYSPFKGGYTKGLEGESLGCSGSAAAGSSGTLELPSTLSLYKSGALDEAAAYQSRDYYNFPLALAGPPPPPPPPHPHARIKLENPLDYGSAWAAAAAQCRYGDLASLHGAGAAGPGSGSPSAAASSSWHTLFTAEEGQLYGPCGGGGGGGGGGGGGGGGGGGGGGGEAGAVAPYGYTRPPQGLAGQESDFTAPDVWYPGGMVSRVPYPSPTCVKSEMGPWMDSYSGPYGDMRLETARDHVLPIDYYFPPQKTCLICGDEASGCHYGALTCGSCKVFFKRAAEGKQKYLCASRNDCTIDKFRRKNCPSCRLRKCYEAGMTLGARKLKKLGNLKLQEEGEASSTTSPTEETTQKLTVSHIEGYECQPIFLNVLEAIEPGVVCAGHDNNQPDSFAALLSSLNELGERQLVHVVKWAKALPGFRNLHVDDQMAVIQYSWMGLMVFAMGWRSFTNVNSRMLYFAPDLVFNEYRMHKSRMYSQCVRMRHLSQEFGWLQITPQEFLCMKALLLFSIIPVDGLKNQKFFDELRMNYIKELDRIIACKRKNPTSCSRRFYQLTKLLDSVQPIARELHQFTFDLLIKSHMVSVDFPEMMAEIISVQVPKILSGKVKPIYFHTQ

[2] = Clearance in Sprague-Dawley rat at 5 mg/kg, po; assay type: ADME, organism-based; details: in vivo
[3] = Antiproliferative activity against human Chang liver cells incubated for 72 hrs by MTT assay; assay type: toxicity, cell-based
[4] = Half life in Sprague-Dawley rat at 1 mg/kg, iv; assay type: ADME, organism-based; details: in vivo
[5] = biological target: Androgen receptor (Homo sapiens, UniProt P10275, F877L/T878A); test: Antagonist activity at DHT-induced Androgen receptor F876L/[…] mutant in human PC-3 cells transfected with ARR2PB-Luc by Dual-Luciferase Reporter assay; assay type: cell-based
[6] = Oral bioavailability in Sprague-Dawley rat at 5 mg/kg; assay type: ADME, organism-based; details: in vivo
[7] = biological target: Androgen receptor (Homo sapiens, UniProt P10275, W742C); test: Antagonist activity at DHT-induced Androgen receptor W741C mutant in human PC-3 cells transfected with ARR2PB-Luc by Dual-Luciferase Reporter assay; assay type: cell-based
[8] = tested on: NIH3T3; test: Antiproliferative activity against mouse NIH3T3 cells incubated for 72 hrs by MTT assay; assay type: toxicity, cell-based; details: nih3t3, 72 h
[9] = AUC (0 to t) in Sprague-Dawley rat at 5 mg/kg, po; assay type: ADME, organism-based; details: in vivo
[10] = Apparent volume of distribution in Sprague-Dawley rat at 1 mg/kg, iv; assay type: ADME, organism-based; details: in vivo, read-out: Vz
[11] = Apparent volume of distribution in Sprague-Dawley rat at 5 mg/kg, po; assay type: ADME, organism-based; details: in vivo
[12] = Cmax in Sprague-Dawley rat at 1 mg/kg, iv; assay type: ADME, organism-based; details: in vivo
[13] = Toxicity in CB17 SCID mouse model xenografted with human LNCaP cells assessed as signs of toxicity at 60 mg/kg, po bid for 32 days; assay type: organism-based; details: in vivo, 768 h, time 32 day
[14] = Toxicity in CB17 SCID mouse model xenografted with human LNCaP cells assessed as body weight loss at 60 mg/kg, po bid for 32 days; assay type: organism-based; details: in vivo, 768 h, time 32 day
[15] = Cmax in Sprague-Dawley rat at 5 mg/kg, po; assay type: ADME, organism-based; details: in vivo
[16] = Clearance in Sprague-Dawley rat at 1 mg/kg, iv; assay type: ADME, organism-based; details: in vivo
[17] = AUC (0 to t) in Sprague-Dawley rat at 1 mg/kg, iv; assay type: ADME, organism-based; details: in vivo
[18] = tested on: GES1; test: (§1) Antiproliferative activity against human GES1 cells incubated for 72 hrs by MTT assay; assay type: toxicity, cell-based; details: ges1, 72 h, time 72 hrs
[19] = Half life in Sprague-Dawley rat at 5 mg/kg, po; assay type: ADME, organism-based; details: in vivo
[20] = Toxicity in CB17 SCID mouse model xenografted with human LNCaP cells assessed as drug tolerance at 60 mg/kg, po bid for 32 days; assay type: organism-based; details: in vivo, 768 h, time 32 day
[21] = biological target: T2, Mineralocorticoid receptor (Homo sapiens, UniProt P08235); test: Antagonist activity at aldosterone-induced Mineralocorticoid receptor (unknown origin) transfected in HEK293T cells by Dual-Luciferase Reporter assay
T2 sequence (P08235 whole entry): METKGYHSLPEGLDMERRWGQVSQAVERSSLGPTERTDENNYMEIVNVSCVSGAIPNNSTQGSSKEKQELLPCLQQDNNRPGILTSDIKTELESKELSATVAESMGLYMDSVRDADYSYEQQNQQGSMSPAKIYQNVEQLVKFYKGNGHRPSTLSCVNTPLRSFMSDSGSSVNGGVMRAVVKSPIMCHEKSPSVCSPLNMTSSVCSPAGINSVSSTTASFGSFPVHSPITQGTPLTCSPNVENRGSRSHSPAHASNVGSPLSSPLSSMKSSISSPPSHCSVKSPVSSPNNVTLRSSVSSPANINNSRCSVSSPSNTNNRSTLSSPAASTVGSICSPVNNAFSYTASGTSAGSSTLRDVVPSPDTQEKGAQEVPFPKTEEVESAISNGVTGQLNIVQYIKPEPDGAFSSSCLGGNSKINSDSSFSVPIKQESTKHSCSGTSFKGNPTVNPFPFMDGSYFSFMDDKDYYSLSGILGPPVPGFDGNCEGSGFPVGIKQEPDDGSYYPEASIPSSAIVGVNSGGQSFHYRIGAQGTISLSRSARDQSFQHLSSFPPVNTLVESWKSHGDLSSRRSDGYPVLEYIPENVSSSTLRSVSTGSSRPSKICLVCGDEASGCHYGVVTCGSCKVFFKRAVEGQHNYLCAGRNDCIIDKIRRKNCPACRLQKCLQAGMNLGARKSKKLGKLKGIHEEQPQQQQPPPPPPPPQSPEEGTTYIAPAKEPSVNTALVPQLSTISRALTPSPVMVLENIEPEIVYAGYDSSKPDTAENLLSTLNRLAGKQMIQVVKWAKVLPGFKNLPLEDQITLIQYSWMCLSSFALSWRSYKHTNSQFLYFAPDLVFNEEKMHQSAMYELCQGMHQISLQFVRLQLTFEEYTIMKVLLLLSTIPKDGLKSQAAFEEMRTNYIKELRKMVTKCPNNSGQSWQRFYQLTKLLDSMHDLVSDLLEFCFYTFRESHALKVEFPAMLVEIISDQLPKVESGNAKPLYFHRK

[22] = tested on: PC-3; test: Antiproliferative activity against androgen independent-human PC-3 cells incubated for 72 hrs by MTT assay; details: PC-3, 72 h
[23] = tested on: CWR22R; test: Antiproliferative activity against androgen independent-human 22Rv1 cells incubated for 72 hrs by MTT assay; details: 22Rv1, 72 h
[24] = Inhibition of DHT-induced secreted PSA production in human LNCaP cells
[25] = as §1; assay type: toxicity, cell-based; details: GES1 cells
[26] = tested on: LNCaP; test: Antiproliferative activity against androgen dependent-human LNCaP cells incubated for 72 hrs by MTT assay
[27] = tested on: DU-145; test: Antiproliferative activity against androgen independent-human DU-145 cells incubated for 72 hrs by MTT assay; details: DU-145, 72 h
[28] = tested on: LNCaP C4-2B; test: Antiproliferative activity against androgen independent-human LNCaP C4-2B cells incubated for 72 hrs by MTT assay

Androgen receptor (Homo sapiens, UniProt P10275, W742C), sequence (P10275 whole entry W742C): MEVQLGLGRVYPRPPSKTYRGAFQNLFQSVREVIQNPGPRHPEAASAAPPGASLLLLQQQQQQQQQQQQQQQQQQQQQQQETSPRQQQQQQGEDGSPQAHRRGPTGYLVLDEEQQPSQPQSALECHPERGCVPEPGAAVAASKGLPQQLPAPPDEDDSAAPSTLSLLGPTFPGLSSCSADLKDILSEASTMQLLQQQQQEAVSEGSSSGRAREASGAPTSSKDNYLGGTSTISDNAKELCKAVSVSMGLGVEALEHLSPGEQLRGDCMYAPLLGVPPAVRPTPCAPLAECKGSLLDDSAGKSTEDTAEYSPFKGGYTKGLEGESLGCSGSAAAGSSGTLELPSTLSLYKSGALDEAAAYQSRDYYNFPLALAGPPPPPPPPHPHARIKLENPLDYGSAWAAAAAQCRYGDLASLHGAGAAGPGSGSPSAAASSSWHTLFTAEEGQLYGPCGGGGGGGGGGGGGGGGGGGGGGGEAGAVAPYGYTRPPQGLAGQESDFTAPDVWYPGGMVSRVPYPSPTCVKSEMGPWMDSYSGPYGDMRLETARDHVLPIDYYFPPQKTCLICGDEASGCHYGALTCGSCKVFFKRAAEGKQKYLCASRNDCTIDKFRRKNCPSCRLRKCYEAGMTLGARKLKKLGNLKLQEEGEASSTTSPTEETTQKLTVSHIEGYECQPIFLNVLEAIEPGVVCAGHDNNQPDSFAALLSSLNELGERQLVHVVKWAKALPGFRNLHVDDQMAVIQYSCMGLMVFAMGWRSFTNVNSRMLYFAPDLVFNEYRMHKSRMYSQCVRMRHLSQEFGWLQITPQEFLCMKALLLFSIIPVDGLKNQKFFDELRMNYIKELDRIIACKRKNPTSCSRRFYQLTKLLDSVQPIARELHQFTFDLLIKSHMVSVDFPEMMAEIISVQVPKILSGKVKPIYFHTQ
Androgen receptor (Homo sapiens, UniProt P10275, F877L/T878A), sequence (P10275 whole entry F877L/T878A): as the sequence (P10275 whole entry W742C) above, with C742W, F877L, T878A counted along it

CN(Cc1ccc(Br)cc1)c1ccc2c(C(F)(F)F)cc(=O)oc2c1
IC50 [1]: 97 nM

CN(Cc1cc(F)ccc1F)c1ccc2c(C(F)(F)F)cc(=O)oc2c1
IC50 [1]: 170 nM

CCN(Cc1cc(F)ccc1F)c1ccc2c(C(F)(F)F)cc(=O)oc2c1
IC50 [1]: 430 nM

CN(Cc1ccc(F)cc1)c1ccc2c(C(F)(F)F)cc(=O)oc2c1
CL/F [2]: 58.5 mL/min/kg | IC50 [1]: 51 nM | Activity [3]: Non-Toxic | half-life [4]: 0.5 h | IC50 [5]: 170 nM | bioavailability [6]: 66.2% | IC50 [7]: 160 nM | Activity [8]: Non-Toxic | AUC(0-t) [9]: 1410 ng·h/mL | Vd [10]: 1.81 L/kg | Vz [11]: 24.6 L/kg | Cmax [12]: 1060 ng/mL | Activity [13]: Non-Toxic | Activity [14]: Non-Toxic | Cmax [15]: 353 ng/mL | clearance [16]: 41 mL/min/kg | AUC(0-t) [17]: 426 ng·h/mL | Activity [18]: Non-Toxic | half-life [19]: 4.82 h | Activity [20]: Non-Toxic

O=c1cc(C(F)(F)F)c2cc([N+](=O)[O-])c(OCc3ccc(Br)cc3)cc2o1
IC50 [1]: > 10000 nM

C[C@]12CCC(=O)C[C@@H]1CC[C@@H]1[C@@H]2CC[C@]2(C)[C@@H](O)CC[C@@H]12 [STANOLONE]
IC50 [21]: 1.24 nM

N#Cc1ccc(CNc2ccc3c(C(F)(F)F)cc(=O)oc3c2)cc1
IC50 [1]: 890 nM

O=c1cc(C(F)(F)F)c2cc(N(CC(F)(F)F)CC(F)(F)F)c(OCc3ccc(Br)cc3)cc2o1
IC50 [1]: > 10000 nM

Cc1ccc(CNc2ccc3c(C(F)(F)F)cc(=O)oc3c2)cc1F
IC50 [1]: 73 nM

CCN(Cc1ccc(F)cc1)c1ccc2c(C(F)(F)F)cc(=O)oc2c1
IC50 [1]: 83 nM

O=c1cc(C(F)(F)F)c2ccc(NCc3ccc(O)cc3)cc2o1
IC50 [1]: 640 nM

O=c1cc(C(F)(F)F)c2ccc(NCc3ccccc3Br)cc2o1
IC50 [1]: 100 nM

O=c1cc(C(F)(F)F)c2cc(N3CCCC3)c(OCc3ccc(Br)cc3)cc2o1
IC50 [1]: > 10000 nM

O=c1cc(C(F)(F)F)c2ccc(OCc3ccc(Br)cc3)cc2o1
IC50 [1]: 590 nM

CN(Cc1ccc(Cl)cc1)c1ccc2c(C(F)(F)F)cc(=O)oc2c1
CL/F [2]: 68 mL/min/kg | Activity [3]: Non-Toxic | half-life [4]: 19.8 h | bioavailability [6]: 19.3% | Activity [8]: Non-Toxic | AUC(0-t) [9]: 724 ng·h/mL | Vd [10]: 27.8 L/kg | Vz [11]: 112.33 L/kg | Cmax [12]: 809 ng/mL | Cmax [15]: 139 ng/mL | clearance [16]: 16.3 mL/min/kg | AUC(0-t) [17]: 750 ng·h/mL | Activity [18]: Non-Toxic | half-life [19]: 11.8 h

CCN(Cc1ccc(Cl)cc1)c1ccc2c(C(F)(F)F)cc(=O)oc2c1
IC50 [1]: 78 nM

O=c1cc(C(F)(F)F)c2ccc(NCc3cc(F)ccc3F)cc2o1
IC50 [1]: 34 nM

CCN(Cc1ccc(Br)cc1)c1ccc2c(C(F)(F)F)cc(=O)oc2c1
IC50 [1]: 100 nM

CNC(=O)c1ccc(N2C(=S)N(c3ccc(C#N)c(C(F)(F)F)c3)C(=O)C2(C)C)cc1F [ENZALUTAMIDE]
IC50 [22]: > 50000 nM | IC50 [23]: > 50000 nM | IC50 [24]: 420 nM | IC50 at 72 h [25]: > 50000 nM | Activity [18]: Non-Toxic | IC50 [26]: 23300 nM

O=C(Nc1ccc2c(C(F)(F)F)cc(=O)oc2c1)c1ccc(Br)cc1
IC50 [1]: > 10000 nM

O=c1cc(C(F)(F)F)c2ccc(NCc3ccc(C(F)(F)F)cc3)cc2o1
IC50 [1]: 110 nM

O=c1cc(C(F)(F)F)c2ccc(NCc3ccc(F)cc3)cc2o1
IC50 [1]: 24 nM | half-life [4]: 0.21 h | bioavailability [6]: 2.5% | IC50 [22]: 21300 nM | AUC(0-t) [9]: 4.09 ng·h/mL | Vd [10]: 9.26 L/kg | Cmax [12]: 82.1 ng/mL | IC50 [27]: 6320 nM | IC50 [28]: 4910 nM | IC50 [23]: 24200 nM | Cmax [15]: 10.8 ng/mL | clearance [16]: 507 mL/min/kg | AUC(0-t) [17]: 32.4 ng·h/mL | IC50 at 72 h [25]: 16000 nM | IC50 [26]: 1900 nM

O=c1cc(C(F)(F)F)c2ccc(NCc3cccc(Br)c3)cc2o1
IC50 [1]: 110 nM

O=c1cc(C(F)(F)F)c2ccc(NCc3ccc(Br)cc3)cc2o1
IC50 [1]: 42 nM

O=c1cc(C(F)(F)F)c2ccc(NCc3ccc(CO)cc3)cc2o1
IC50 [1]: 92 nM

O=c1cc(C(F)(F)F)c2ccc(NCc3ccc(OC(F)F)cc3)cc2o1
IC50 [1]: 68 nM

CCN(CC)c1cc2c(C(F)(F)F)cc(=O)oc2cc1OCc1ccc(Br)cc1
IC50 [1]: > 10000 nM

O=c1cc(C(F)(F)F)c2ccc(NCc3ccc(Br)c(F)c3)cc2o1
IC50 [1]: 69 nM

O=c1cc(C(F)(F)F)c2ccc(NCc3ccc(Cl)cc3)cc2o1
half-life [4]: 0.27 h | bioavailability [6]: 13% | AUC(0-t) [9]: 103 ng·h/mL | Vd [10]: 2.3 L/kg | Cmax [12]: 395 ng/mL | Cmax [15]: 258 ng/mL | clearance [16]: 97.7 mL/min/kg | AUC(0-t) [17]: 158 ng·h/mL
